Values after ≈ are worked out from the molar mass of the structure shown. Active and inactive are the calls of the source. The rule behind the calls is not given here.

Assay [1] has as its system P388. Put plainly: Cytotoxicity against mouse P388 cells. The class given is functional. The conditions noted are these: read-out: ED50 (the source's name).
Assay [2] has as its system A549. Briefly: Cytotoxicity against human A549 cells. It is filed as functional. The conditions noted are these: read-out: ED50 (the source's name).
The test system of assay [3] is TE-671. Briefly: Cytotoxicity against human TE671 cells. It is filed as functional. The conditions noted are these: read-out: ED50 (the source's name).
In assay [4] the test system is RPMI-7951. Briefly: Cytotoxicity against human RPMI7951 cells. The class given is functional. The conditions noted are these: read-out: ED50 (the source's name).
The test system of assay [5] is KB. Briefly: Cytotoxicity against human KB cells. It is filed as functional. Particulars: read-out: ED50 (the source's name).
Assay [6] deals with HCT-8. Briefly: Cytotoxicity against human HCT8 cells. The class given is functional. Particulars: read-out: ED50 (the source's name).
The test system of assay [7] is A549. Put plainly: Cytotoxicity against human A549 cells at 10 ug/ml. The class given is functional, cell-based.
Assay [8] has as its system KB. Briefly: Cytotoxicity against human KB cells at 10 ug/ml. The class given is functional, cell-based.
The subject of assay [9] is RPMI-7951. Briefly: Cytotoxicity against human RPMI7951 cells at 10 ug/ml. It is filed as functional, cell-based.
Assay [10] relates to TE-671. Put plainly: Cytotoxicity against human TE671 cells at 10 ug/ml. The class given is functional, cell-based.
Assay [11] concerns P388. Briefly: Cytotoxicity against mouse P388 cells at 10 ug/ml. The class given is functional, cell-based.
Assay [12] has as its system HCT-8. Put plainly: Cytotoxicity against human HCT8 cells at 10 ug/ml. It is filed as functional, cell-based.

For the compound `C=C(CO)[C@H]1Cc2c(ccc3c2O[C@@H]2COc4cc(OC)c(OC)cc4[C@@H]2C3=O)O1` [AMORPHIGENIN], the EC50 in the assay with P388 [1] was 0.04 µg/mL (≈ 0.0975 µM); in the assay with A549 [2], 0.05 µg/mL (≈ 0.122 µM); with TE-671 [3], less than 0.01 µg/mL; in the assay with RPMI-7951 [4], 0.05 µg/mL (≈ 0.122 µM); in the assay with KB [5], 0.04 µg/mL (≈ 0.0975 µM); in the assay on HCT-8 [6], 0.03 µg/mL (≈ 0.0731 µM).

Regarding `COc1ccc(-c2coc3cc(O)c(OC)cc3c2=O)cc1`, the ED50 entry in the assay on A549 [7], in the assay with KB [8], in the assay on RPMI-7951 [9], in the assay on TE-671 [10], with P388 [11] and with HCT-8 [12] was “inactive” each time.

As for `COc1cc2c(cc1OC)[C@@H]1C(=O)c3ccc4c(c3O[C@@H]1CO2)C[C@H](C(C)(C)O)O4` [DALPANOL], the ED50 entry with P388 [11] is “inactive”. Also, the EC50 was 0.86 µg/mL (≈ 2.09 µM) in the assay with A549 [2]; 0.49 µg/mL (≈ 1.19 µM) in the assay on TE-671 [3]; 4.83 µg/mL (≈ 11.7 µM) in the assay on RPMI-7951 [4]; 0.89 µg/mL (≈ 2.16 µM) in the assay with KB [5]; 0.48 µg/mL (≈ 1.16 µM) in the assay with HCT-8 [6].

With `C=C(CO)[C@H]1Cc2c(ccc3c2O[C@@H]2COc4cc(OC)c(OC)cc4[C@]2(O)C3=O)O1` [DABINOL], the EC50 with P388 [1], in the assay on A549 [2], in the assay on TE-671 [3], with RPMI-7951 [4], in the assay on KB [5] and in the assay on HCT-8 [6] was less than 0.001 µg/mL each time.

For `COc1cc2c(cc1OC)[C@@H]1C(=O)c3ccc4c(c3O[C@@H]1CO2)C[C@H](C(C)(C)O[C@@H]1O[C@H](CO)[C@@H](O)[C@H](O)[C@H]1O)O4`, the ED50 entry in the assay with A549 [7] was “inactive”. Moreover, the EC50 with P388 [1] came out at 6.68 µg/mL (≈ 11.6 µM); in the assay with TE-671 [3] it was 2.95 µg/mL (≈ 5.13 µM); with RPMI-7951 [4] it was 4.44 µg/mL (≈ 7.73 µM); with KB [5], 6.32 µg/mL (≈ 11 µM); in the assay with HCT-8 [6], 7.43 µg/mL (≈ 12.9 µM).

Regarding `COc1cc2c(cc1OC)[C@]1(O)C(=O)c3ccc4c(c3O[C@@H]1CO2)C[C@H](C(C)(C)O)O4`, the EC50 is 0.59 µg/mL (≈ 1.38 µM) in the assay with P388 [1]; 9.28 µg/mL (≈ 21.7 µM) with A549 [2]; 0.12 µg/mL (≈ 0.28 µM) with TE-671 [3]; 0.73 µg/mL (≈ 1.7 µM) with RPMI-7951 [4]; 3.67 µg/mL (≈ 8.57 µM) in the assay on KB [5]; 0.56 µg/mL (≈ 1.31 µM) in the assay with HCT-8 [6].

For `COc1cc2c(cc1OC)[C@]1(O)C(=O)c3ccc4c(c3O[C@@H]1CO2)C=CC(C)(C)O4` [TEPHROSIN], the EC50 is 0.06 µg/mL (≈ 0.146 µM) in the assay on P388 [1]; less than 0.001 µg/mL in the assay with A549 [2]; 0.05 µg/mL (≈ 0.122 µM) in the assay on TE-671 [3]; 0.07 µg/mL (≈ 0.171 µM) with RPMI-7951 [4]; 0.36 µg/mL (≈ 0.877 µM) with KB [5]; 0.09 µg/mL (≈ 0.219 µM) in the assay with HCT-8 [6].

For the compound `COc1ccc(-c2coc3c(OC)c(O)ccc3c2=O)cc1`, the ED50 result with A549 [7], in the assay on KB [8], with RPMI-7951 [9], with TE-671 [10], in the assay with P388 [11] and in the assay with HCT-8 [12] was “inactive” in each case.

With `COc1ccc2c(=O)c(-c3cc(OC)c(OC)cc3OC)coc2c1`, the ED50 entry in the assay on A549 [7] and in the assay on TE-671 [10] was “inactive” throughout. The EC50 is 0.53 µg/mL (≈ 1.55 µM) in the assay with P388 [1], 0.49 µg/mL (≈ 1.43 µM) with RPMI-7951 [4], 0.55 µg/mL (≈ 1.61 µM) in the assay on KB [5] and 4.63 µg/mL (≈ 13.5 µM) in the assay on HCT-8 [6].

In the case of `COC1=CC(=O)[C@]2(C=C1OC)OC[C@H]1Oc3c(ccc4c3C=CC(C)(C)O4)C(=O)[C@H]12` [AMORPHISPIRONONE], the ED50 result with A549 [7], in the assay with TE-671 [10], in the assay with P388 [11] and in the assay on HCT-8 [12] was “inactive” each time. The EC50 in the assay on RPMI-7951 [4] turned out to be 0.61 µg/mL (≈ 1.49 µM); in the assay on KB [5], 0.58 µg/mL (≈ 1.41 µM).
